# Patent US20110224160A1, “Use of Escin for Treatment of Type IV Hypersensitivity Reaction” (MARINOMED BIOTECHNOLOGIE GMBH, priority 2008, published 2011)
# What was measured:
# [1] = tested on: strong hypersensitivity reactions; assay: strong hypersensitivity reactions in an in vivo model
# [2] = tested on: oxazolone induced topical inflammation in BALB/c mice; assay: oxazolone induced contact dermatitis model (ear swelling); assay type: in vivo
# Protocol: FIG. 1: Efficacy of escin in an oxazalone induced contact dermatitis model. 3 mg/kg of escin were applied intraperitoneally (ip.) 6 h before challenge, 0.9% saline solution served as a vehicle. […] Bars represent the mean of five animals, SEM is indicated.
# Escin was evaluated for anti-inflammatory activity by ip. injection in the oxazolone induced topical inflammation in BALB/c mice, which is a model of type IV hypersensitivity reaction, in particular contact dermatitis. The swelling of the challenged ear in comparison to the unchallenged control was determined as a parameter for induced contact dermatitis.
# [3] = tested on: LPS mediated release of TNF alpha; assay: LPS mediated release of TNF alpha in primary human blood; assay type: cell-based
substance,measurement,setting,value
escin,effects of strong hypersensitivity reactions,[1],reduces the effects of strong hypersensitivity reactions
same,inhibition of oxazolone induced ear swelling,"[2]; BALB/c mice, escin 3 mg/kg ip., 6 hours after oxazolone application, challenged vs unchallenged ear",significant inhibition
same,induced topical inflammation in a mouse model of contact dermatitis,[2]; mouse model of contact dermatitis,reduced induced topical inflammation
same,LPS mediated release of TNF alpha,[3],inhibits dose-dependently
